In paper PMC5199130 (Molecular Systems Biology, 2016):

B1: Lem14 (Lpg1851) 1–220, purified and crystallised (natural protein)
chain: MSFELVAYEKLKGSIRESIITLIKSHNEKAKIIEDKLEYSVKEVSRERQPQVLVLLKTIELLDNSSKEPEDKARVLNALAYYIRDQIAATYKYTSPDNSDFYKSLTISLDLNKDNNPNREDLADMYSALEKFLRSHVYKNSDPRKGYLDKQPFAIKHYSVVDDILELSDRVHKLRHEIIIAARDLHLLQQKPKSSQGGLFSVPSGKEKVTDTHEVANHRL

Tests used:
MavQ = target: T1, MavQ (Legionella pneumophila, UniProt Q5ZRA8)
T1 construct: gene lpg2975

[1] = target: RavJ (Lpg0944) 1–230, purified (Legionella pneumophila str. Philadelphia-1) (UniProt Q5ZWY9); assay: crystal structure
crystal structure = target: the molecule itself; assay: crystal structure

Molecule | ADP-Glo kinase assay (MavQ) | further results
Nc1ncnc2c1ncn2[C@@H]1O[C@H](COP(=O)(O)OP(=O)(O)OP(=O)(O)O)[C@@H](O)[C@H]1O [ATP] | wild‐type MavQ, but not the D147A mutant, possesses robust ATP hydrolysis activity | 
CCCCCCCC(=O)OC[C@H](COP(=O)(O)O[C@@H]1[C@H](O)[C@H](O)[C@@H](O)[C@H](O)[C@H]1O)OC(=O)CCCCCCC [PI diC8] | addition of phosphoinositide to this reaction increased the activity of the wild‐type MavQ fivefold | 
LegL1 (Lpg0945) 1–296, purified (from UniProt Q5ZWY8 1-296) (natural protein) |  | stoichiometry N [1]: 1
B1 |  | stoichiometry N (crystal structure): 2
